Ki and Ki app data for one molecule are collected here from ChEMBL document CHEMBL1138088, “Design and synthesis of selective keto-1,2,4-oxadiazole-based tryptase inhibitors” (Bioorg Med Chem Lett, 2006).

Assay [1] deals with Prothrombin (Homo sapiens, UniProt P00734). Nature of the assay: Inhibition of thrombin. To be noted: read-out: Ki app.
Assay [2] deals with Coagulation factor IX (Homo sapiens, UniProt P00740). Nature of the assay: Inhibition of factor 9a. The note with it: read-out: Ki app.
The target in assay [3] is Coagulation factor X (Homo sapiens, UniProt P00742). Nature of the assay: Inhibition of factor 10a. To be noted: read-out: Ki app.
Assay [4] has as its target Vitamin K-dependent protein C (Homo sapiens, UniProt P04070). Nature of the assay: Inhibition of APC. To be noted: read-out: Ki app.
Assay [5] addresses Coagulation factor XI (Homo sapiens, UniProt P03951). Put plainly: Inhibition of factor 11a. To be noted: read-out: Ki app.
Assay [6] concerns the target Plasma kallikrein (Homo sapiens, UniProt P03952). Nature of the assay: Inhibition of kallikrein. The note with it: read-out: Ki app.
In assay [7] the target is Trypsin (Homo sapiens, UniProt P07477+P07478+P35030). Put plainly: Inhibition of trypsin. The class given is protein assay.
For assay [8], the target named is T1, Granzyme K (Homo sapiens, UniProt P49863).
T1 sequence (P49863 whole entry): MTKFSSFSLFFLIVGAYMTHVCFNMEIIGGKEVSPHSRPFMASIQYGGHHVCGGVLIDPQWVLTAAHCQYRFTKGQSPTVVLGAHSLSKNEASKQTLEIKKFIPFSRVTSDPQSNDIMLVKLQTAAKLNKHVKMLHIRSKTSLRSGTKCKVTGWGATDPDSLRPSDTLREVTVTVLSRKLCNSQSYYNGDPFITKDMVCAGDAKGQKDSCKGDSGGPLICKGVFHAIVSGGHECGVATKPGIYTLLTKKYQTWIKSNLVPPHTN
Nature of the assay: Inhibition of granzyme K. The note with it: read-out: Ki app.

Assay [9] deals with Plasminogen (Homo sapiens, UniProt P00747). Put plainly: Inhibition of plasmin. The note with it: read-out: Ki app.
Assay [10] addresses T2, Cathepsin G (Homo sapiens, UniProt P08311).
T2 sequence (P08311 whole entry): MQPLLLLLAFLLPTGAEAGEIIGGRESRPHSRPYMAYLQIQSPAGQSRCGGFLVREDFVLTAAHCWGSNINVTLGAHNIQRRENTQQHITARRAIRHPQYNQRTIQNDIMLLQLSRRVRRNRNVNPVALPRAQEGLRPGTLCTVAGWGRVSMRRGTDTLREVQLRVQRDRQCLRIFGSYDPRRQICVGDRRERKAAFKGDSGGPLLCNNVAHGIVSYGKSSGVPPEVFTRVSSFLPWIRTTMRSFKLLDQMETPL
Nature of the assay: Inhibition of cathepsin G. To be noted: read-out: Ki app.

Assay [11] is described as follows: Inhibition of elastase. On the set-up: species or system Homo sapiens. To be noted: read-out: Ki app.
Assay [12] concerns the target T3, Chymase (Homo sapiens, UniProt P23946).
T3 sequence (P23946 whole entry): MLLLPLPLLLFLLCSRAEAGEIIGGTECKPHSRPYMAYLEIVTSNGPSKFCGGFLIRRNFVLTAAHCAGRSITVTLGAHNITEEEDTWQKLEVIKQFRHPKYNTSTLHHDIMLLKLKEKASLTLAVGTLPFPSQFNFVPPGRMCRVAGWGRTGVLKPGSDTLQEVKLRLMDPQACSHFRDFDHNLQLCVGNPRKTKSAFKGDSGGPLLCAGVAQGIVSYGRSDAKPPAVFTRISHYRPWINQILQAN
Put plainly: Inhibition of chymase. To be noted: read-out: Ki app.

Assay [13] concerns the target Chymotrypsinogen B (Homo sapiens, UniProt P17538). Nature of the assay: Inhibition of chymotrypsin. To be noted: read-out: Ki app.
The target of assay [14] is T4, Coagulation factor VII (Homo sapiens, UniProt P08709).
T4 sequence (P08709 whole entry): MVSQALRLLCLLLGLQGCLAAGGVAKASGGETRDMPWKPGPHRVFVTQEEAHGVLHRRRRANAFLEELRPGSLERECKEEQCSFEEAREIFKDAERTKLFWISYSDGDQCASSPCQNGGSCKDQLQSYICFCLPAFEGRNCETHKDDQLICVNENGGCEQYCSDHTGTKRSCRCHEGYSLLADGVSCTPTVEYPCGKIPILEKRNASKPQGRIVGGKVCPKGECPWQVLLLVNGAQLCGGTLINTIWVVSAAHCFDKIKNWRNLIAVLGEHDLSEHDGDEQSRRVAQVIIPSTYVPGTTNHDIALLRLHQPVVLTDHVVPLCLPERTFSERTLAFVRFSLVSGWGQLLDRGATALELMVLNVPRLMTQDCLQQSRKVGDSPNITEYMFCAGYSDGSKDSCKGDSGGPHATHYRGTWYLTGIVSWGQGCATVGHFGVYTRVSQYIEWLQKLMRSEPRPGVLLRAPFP
Nature of the assay: Inhibition of factor 7a. To be noted: read-out: Ki app.

The target of assay [15] is Urokinase-type plasminogen activator (Homo sapiens, UniProt P00749). Nature of the assay: Inhibition of urokinase. To be noted: read-out: Ki app.

Sequence of Coagulation factor X (P00742 41-179 limits assumed): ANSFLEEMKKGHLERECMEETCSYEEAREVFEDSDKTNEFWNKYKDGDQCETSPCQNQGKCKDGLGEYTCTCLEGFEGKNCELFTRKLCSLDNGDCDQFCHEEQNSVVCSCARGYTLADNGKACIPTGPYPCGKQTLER
Sequence of Coagulation factor X (P00742 235-488 limits assumed): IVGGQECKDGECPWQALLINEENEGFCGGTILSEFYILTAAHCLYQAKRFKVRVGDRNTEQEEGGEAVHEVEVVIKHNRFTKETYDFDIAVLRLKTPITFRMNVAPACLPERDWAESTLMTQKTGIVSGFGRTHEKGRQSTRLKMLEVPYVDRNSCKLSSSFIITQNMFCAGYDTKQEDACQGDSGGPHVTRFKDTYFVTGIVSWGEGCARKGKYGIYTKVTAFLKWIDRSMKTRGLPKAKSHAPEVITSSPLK
Sequence of Coagulation factor XI (P03951 19-387 limits assumed): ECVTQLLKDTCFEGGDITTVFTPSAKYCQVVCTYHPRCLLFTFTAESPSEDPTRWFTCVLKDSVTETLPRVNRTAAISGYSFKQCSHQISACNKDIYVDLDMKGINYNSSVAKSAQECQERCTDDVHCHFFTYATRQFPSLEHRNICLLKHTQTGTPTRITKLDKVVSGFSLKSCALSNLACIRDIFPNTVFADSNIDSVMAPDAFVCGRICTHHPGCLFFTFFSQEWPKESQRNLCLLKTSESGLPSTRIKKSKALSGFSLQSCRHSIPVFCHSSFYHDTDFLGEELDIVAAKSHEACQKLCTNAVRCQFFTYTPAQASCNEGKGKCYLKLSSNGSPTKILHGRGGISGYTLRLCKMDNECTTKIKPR
Sequence of Coagulation factor XI (P03951 388-625 limits assumed): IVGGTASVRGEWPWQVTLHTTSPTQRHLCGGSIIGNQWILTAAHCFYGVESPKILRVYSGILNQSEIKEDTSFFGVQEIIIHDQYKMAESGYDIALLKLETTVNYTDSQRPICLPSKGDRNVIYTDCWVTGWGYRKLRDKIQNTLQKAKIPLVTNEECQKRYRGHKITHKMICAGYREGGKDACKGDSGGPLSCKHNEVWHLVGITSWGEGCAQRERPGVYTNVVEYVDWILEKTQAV
Sequence of Plasma kallikrein (P03952 20-390 limits assumed): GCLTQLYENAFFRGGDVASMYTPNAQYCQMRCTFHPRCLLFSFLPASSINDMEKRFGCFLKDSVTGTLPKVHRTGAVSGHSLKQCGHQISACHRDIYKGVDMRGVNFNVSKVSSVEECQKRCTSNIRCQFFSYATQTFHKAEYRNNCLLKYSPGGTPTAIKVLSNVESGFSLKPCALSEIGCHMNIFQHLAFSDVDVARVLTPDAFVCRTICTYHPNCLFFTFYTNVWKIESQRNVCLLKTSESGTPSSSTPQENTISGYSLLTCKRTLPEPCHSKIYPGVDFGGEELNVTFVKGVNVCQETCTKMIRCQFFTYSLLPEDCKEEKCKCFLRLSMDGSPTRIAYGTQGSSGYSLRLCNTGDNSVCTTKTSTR
Sequence of Plasma kallikrein (P03952 391-638 limits assumed): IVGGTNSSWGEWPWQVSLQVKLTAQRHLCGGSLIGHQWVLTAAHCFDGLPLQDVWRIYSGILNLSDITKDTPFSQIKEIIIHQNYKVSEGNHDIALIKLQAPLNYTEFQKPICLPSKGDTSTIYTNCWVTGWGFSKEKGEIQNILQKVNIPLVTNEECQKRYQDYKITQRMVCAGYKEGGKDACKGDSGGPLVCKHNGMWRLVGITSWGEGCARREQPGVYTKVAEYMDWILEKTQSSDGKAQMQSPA
Sequence of Plasminogen (P00747 97-580 limits assumed): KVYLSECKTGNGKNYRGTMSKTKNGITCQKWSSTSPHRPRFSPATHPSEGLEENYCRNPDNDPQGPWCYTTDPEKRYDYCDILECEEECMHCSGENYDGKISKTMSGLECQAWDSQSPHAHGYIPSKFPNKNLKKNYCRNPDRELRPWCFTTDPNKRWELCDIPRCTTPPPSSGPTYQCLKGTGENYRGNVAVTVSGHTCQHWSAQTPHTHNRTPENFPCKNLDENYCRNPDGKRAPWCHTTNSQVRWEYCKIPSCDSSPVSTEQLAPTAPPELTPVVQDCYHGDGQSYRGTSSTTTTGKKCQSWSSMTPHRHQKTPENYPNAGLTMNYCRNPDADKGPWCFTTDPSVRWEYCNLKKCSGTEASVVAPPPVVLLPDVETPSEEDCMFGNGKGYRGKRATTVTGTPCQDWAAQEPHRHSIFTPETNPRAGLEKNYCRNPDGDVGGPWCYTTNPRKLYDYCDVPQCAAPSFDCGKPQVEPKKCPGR
Sequence of Plasminogen (P00747 581-810 limits assumed): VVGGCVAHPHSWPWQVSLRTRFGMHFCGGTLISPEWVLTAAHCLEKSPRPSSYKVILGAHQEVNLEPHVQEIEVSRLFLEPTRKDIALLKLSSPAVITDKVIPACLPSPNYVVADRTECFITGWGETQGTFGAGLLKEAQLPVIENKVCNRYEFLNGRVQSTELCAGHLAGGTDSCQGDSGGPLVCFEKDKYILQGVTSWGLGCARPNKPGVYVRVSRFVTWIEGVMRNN
Sequence of Chymotrypsinogen B (P17538 34-164 limits assumed, other chains not shown): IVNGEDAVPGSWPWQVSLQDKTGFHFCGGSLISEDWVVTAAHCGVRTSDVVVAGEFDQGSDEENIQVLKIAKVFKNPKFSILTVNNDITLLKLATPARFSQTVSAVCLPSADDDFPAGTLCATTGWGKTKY
Sequence of Chymotrypsinogen B (P17538 167-263 limits assumed, other chains not shown): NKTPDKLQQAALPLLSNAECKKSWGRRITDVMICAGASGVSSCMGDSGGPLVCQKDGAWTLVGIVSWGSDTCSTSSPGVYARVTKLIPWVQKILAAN
Sequence of Vitamin K-dependent protein C (P04070 43-197 limits assumed): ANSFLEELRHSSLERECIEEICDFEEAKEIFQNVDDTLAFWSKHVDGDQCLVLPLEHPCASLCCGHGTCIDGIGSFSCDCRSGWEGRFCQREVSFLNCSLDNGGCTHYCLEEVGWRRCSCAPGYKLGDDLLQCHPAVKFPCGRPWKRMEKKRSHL
Sequence of Vitamin K-dependent protein C (P04070 212-461 limits assumed): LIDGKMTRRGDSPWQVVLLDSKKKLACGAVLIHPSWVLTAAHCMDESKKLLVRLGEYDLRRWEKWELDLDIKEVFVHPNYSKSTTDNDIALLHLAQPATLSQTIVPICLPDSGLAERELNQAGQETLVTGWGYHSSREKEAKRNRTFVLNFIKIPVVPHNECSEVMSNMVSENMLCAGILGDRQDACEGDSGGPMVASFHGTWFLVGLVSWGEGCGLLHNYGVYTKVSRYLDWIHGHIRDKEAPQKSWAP
Sequence of Coagulation factor IX (P00740 47-191 limits assumed): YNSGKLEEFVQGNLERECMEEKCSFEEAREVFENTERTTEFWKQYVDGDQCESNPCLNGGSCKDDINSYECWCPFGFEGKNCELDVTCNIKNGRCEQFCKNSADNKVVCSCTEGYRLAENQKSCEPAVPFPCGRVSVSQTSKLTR
Sequence of Coagulation factor IX (P00740 227-461 limits assumed): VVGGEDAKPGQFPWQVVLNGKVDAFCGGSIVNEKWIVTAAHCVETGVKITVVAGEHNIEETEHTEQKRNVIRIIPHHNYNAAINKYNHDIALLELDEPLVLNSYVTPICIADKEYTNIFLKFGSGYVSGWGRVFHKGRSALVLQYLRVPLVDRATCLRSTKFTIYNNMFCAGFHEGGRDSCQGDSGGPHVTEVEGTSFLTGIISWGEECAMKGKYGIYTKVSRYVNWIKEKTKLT

As for `Cl.NCCCC[C@H](NC(=O)c1ccc(F)c(F)c1)C(=O)c1noc(Cc2ccc(OCCc3ccc(Cl)c(Cl)c3)cc2)n1`, the Ki in assay [1] is more than 150 µM; in assay [2], more than 150 µM; in [3], more than 150 µM; in assay [4], more than 150 µM; in assay [5] it was more than 150 µM; in [6], 83 µM. The Ki in [8] was more than 150 µM; in assay [9], 0.91 µM; in [10], more than 150 µM; in assay [11], more than 150 µM; in assay [12] it was more than 150 µM; in [13], more than 150 µM. The Ki in [14] and in [15] was more than 150 µM in each case. Also, the Ki app in [7] is 3.3 µM.
